Experiment [1] relates to T2 cells pulsed with E75. Put plainly: CTL assay: lysis of peptide-pulsed T2 cells by peptide-induced CTL. Conditions: for recognition of E75 by variant-induced CTL compared with E75-induced CTL: donor 1, priming; for E75-specific lytic activity of variant-induced CTL compared with E75-CTL: donor 2. The experiment is classed as cell-based, human.
Experiment [2] deals with CD8+ cells. Put plainly: Expansion and survival of peptide-stimulated T cells (numbers of live / CD8+ cells). Type of experiment: cell-based, human. Conditions: for number / survival of stimulated cells at restimulation compared with E75: donor 2; for percentage of live cells: donor 2, 30 days after priming, primed and restimulated.
Experiment [3] has as its system PBMC. Put plainly: IFN-γ induction in PBMC/T cells stimulated with peptide-pulsed autologous DC (ELISA). Type of experiment: cell-based, human. More on the design: IFN-γ induction at priming compared with E75: dose or concentration left out as unconfirmed. Conditions: for IFN-γ induction at priming compared with E75: two weak E75-responder donors, […] μM on autologous DC; for IFN-γ at priming compared with E75: donor 1; for increase of IFN-γ at priming over E75: donor 2. (An ELISA detects its analyte on a solid surface through an enzyme-linked reagent.)

The test system of experiment [4] is PBMC. Put plainly: IL-2 induction in PBMC/T cells stimulated with peptide-pulsed autologous DC (ELISA). The experiment is classed as cell-based, human. The conditions noted are these: Donor 3.
Experiment [5] deals with Bcl-2, Bcl-xL, Bad. Type of experiment: cell-based, human. The conditions noted are these: for up-regulation of Bcl-2 and Bcl-XL: F42SK-CTL restimulated with agonists pulsed on T2.
The test system of experiment [6] is SKOV3.A2 cells. In words: Cold-target inhibition of lysis of SKOV3.A2 by T2-E75. Type of experiment: cell-based, human.
The target in experiment [7] is HLA-A2 (Homo sapiens, UniProt P04439, D140Y/D185E/D98H/E176V/E277Q/G131W/G231S/I119V/I121R/I166T/I218V/N151K/N90K/P208A/P217A/Q86G/Q94H/R138H/R169H). Put plainly: Molecular modeling of peptide:HLA-A2 complex, accessible surface area (GETAREA 1.1).
Experiment [8] concerns CD8+ cells. In words: Two color FACS (CD62L, CFSE) of peptide-stimulated CD8+ cells. The experiment is classed as cell-based, human. Conditions: Donor 1 CD8+ cells, 20 additional days in IL-2.
Experiment [9] concerns ovarian tumor OVA-16 (HLA-A2+, HER-2high). In words: Cold-target inhibition of cytolysis of OVA-16 by T2-E75. Conditions: S5K-CTL. Type of experiment: cell-based, human. The text has this:
(§1) FIGS. 11A-11C. […] FIGS. 11A and 11B, Cold target inhibition of cytolysis of OVA-16 (HLA-A2, HER-2^high). […] E:T ratio was 10:1; the ratio of cold to hot targets was 1:1. C, IFN γ induction. IL-12 was used at 3 IU (300 pg/ml); the responders to SKOV3. A2 stimulator ratio was 40:1.
(§2) Similar inhibition (38%) was observed against SKOV3.A2 in a 16-h assay. […] The levels of inhibition of lysis indicative of specific recognition were similar to those levels observed with donor 2, E75-CTL, and S5K-CTL (FIG. 8E). S5K-CTL was also tested for the ability to secrete IFN-γ at an encounter with the ovarian tumor SKOV3.A2 and its HLA-A2^− counterpart SKOV3. This was necessary because the tumor and responding lymphocytes shared HLA-A3.

In experiment [10] the test system is E75+TCR cells. Put plainly: E75+TCR cells determined with E75 dimers (dE75), flow cytometry. The experiment is classed as cell-based, human.
Experiment [11] deals with T2 cells pulsed with E75. The conditions noted are these: cited from earlier work.
The subject of experiment [12] is SKOV3.A2. Put plainly: IFN-γ secretion of S5K-CTL at encounter with ovarian tumor SKOV3.A2. The conditions noted are these: SKOV3.A2 stimulator, IL-12 as costimulator. The experiment is classed as cell-based, human.
Excerpt: as §1, §2

Where no end group is shown, it is not given here. [ ]: non-standard residue; d: D form. Nle = CCCC[C@H](N)C(=O)O; Nva = CCC[C@H](N)C(=O)O

“A7.2: E75 with Ala7 replaced by norvaline (NVal), 2 CH2 groups extending linearly from Ala7 (KIFGSL[Nva]FL)”: the “number of E75-specific LU, schedule 2×A7.3 to 2×A7.2 relative to 4×A7.3” value in experiment [1] is reported as “two times higher”. Further, in [1] (4×2), the “increase in number of E75-lytic specific effectors, 2×A7.3 to 2×A7.2 vs 4×A7.3” value amounted to 8 fold. Besides, the “E75 level recognized by induced CTL” value in experiment [1] (A7.3-induced, A7.3-restimulated CTL after additional stimulation with A7.2) turned out to be 50 nM. Further, the “sensitivity for E75 relative to E75-induced CTL” value in experiment [1] (CTL at 50 nM level) was “at least 100 fold”. The “lytic activity induced in rested A7.3 CTL by restimulation” value in [1] (tested 30 h later, no IL-2) is reported as “somewhat higher levels of lytic activity”. Moreover, the “numbers of CD8+ cells, schedule 2×A7.3 to 2×A7.2 relative to 4×A7.3” value in experiment [2] is 4 times. The “IFN-γ induction at priming” value in [3] (Donor 3) is “stronger inducer of IFN-γ”. In addition, the “IFN-γ response to E75 of primed T cells relative to E75-primed T cells” value in [3] (E75 at 2 μM, within 16 h, Donor 1) turned out to be 3 fold. Further, the IFN-γ induction entry in experiment [3] (cells from donors and ovarian cancer patients which did not respond to E75) is “higher levels of IFN-γ than A7.3 and G4.3”. Further, in [3], the “IFN-γ induction at priming compared with E75” value is recorded as “higher levels of IFN-γ than E75”.

Consider “K1FGSL (NLeu)FL (KIFGSL[Nle]FL) [A7.3, 10]”, for which the “E75 level recognized by induced CTL” value in experiment [1] (A7.3-induced CTL-TIL restimulated with A7.3) is 200 nM. The “exogenous pulsed E75 concentration recognized by induced CTL” value in experiment [1] (Donor 4 (CTL-4), three stimulations) stood at 25 nM. The “IL-2 induction at priming” value in experiment [4] is on record as “stronger inducer of IL-2 than A7.2”. In addition, the “up-regulation of Bcl-2 and Bcl-XL” value in experiment [5] was “significantly stronger stimulators for up-regulation of Bcl-2 and Bcl-XL than F42”. In addition, the “Bcl-xL to Bad ratio” value in experiment [5] (S5K-CTL CD8+ cells stimulated 96 h, 25 μg/ml) is reported as “even higher Bcl-xL to Bad ratios than E75”. The “inhibition of SKOV3.A2 lysis by T2-E75” value in experiment [6] (A7.3-induced CTL-TIL, 5 h CTL assay) is 60%. In experiment [6] (CTL-3 primed with E75 and restimulated, T2-E75 at 100 nM), the “inhibition of lysis of SKOV3-A2 by T2-E75” value stood at 27%. Besides, in experiment [3], the “IFN-γ induction at priming compared with E75” value was “higher levels of IFN-γ than E75”. Besides, the “change in the surface between E75 and A7.3” value in [7] came to 0.036%.

Turning to KIFGALAFL [S5A], in [1], the “recognition of E75 by variant-induced CTL compared with E75-induced CTL” value (“recognition … compared with E75-induced CTL” below) was “recognized E75 better than CTL induced by E75” and the “E75-specific lytic activity of variant-induced CTL compared with E75-CTL” value is reported as “significantly higher”. For the same substance, in experiment [2], the “number / survival of stimulated cells at restimulation compared with E75” value (“number / survival … compared with E75” for short) is recorded as “dropped faster” and the “percentage of live cells” value is “decrease in live cells”. For the same substance, in experiment [3], the “IFN-γ at priming compared with E75” value is listed as “higher levels of IFN-γ” and the “increase of IFN-γ at priming over E75” value stood at 100%.

With KIFGGLAFL [S5G], the “recognition … compared with E75-induced CTL” value in experiment [1] is on record as “recognized E75 better than CTL induced by E75”. Further, in experiment [2], the “number / survival … compared with E75” value is “dropped faster” and the “percentage of live cells” value is reported as “decrease in live cells”. Moreover, the “CD62L+ cells in the resulting population” value in experiment [8] came to 4.8%. Moreover, in experiment [3], the “IFN-γ at priming compared with E75” value is on record as “higher levels of IFN-γ” and the “increase of IFN-γ at priming over E75” value turned out to be 64%.

For KIFGKLAFL [S5K], in [1] (E75 10 μg/ml, E:T ratio 40:1), the “lysis of T2-E75 by peptide-induced CTL” value was found to be 25.4 % lysis. Also, in experiment [1], the “recognition … compared with E75-induced CTL” value is listed as “CTL induced by priming with E75 recognized E75 better”. Also, the “E75-specific lytic activity of variant-induced CTL compared with E75-CTL” value in experiment [1] is given as “lower than the recognition by E75-CTL”. The “recognition (lysis) of peptide-pulsed T2 by E75-CTL” value in experiment [1] (donor 3 E75-CTL, peptide 50 μg/ml) is 32%. In addition, the “inhibition of lysis of OVA-16 by T2-E75” value in [9] (8-h CTL assay) is 21%; in experiment [9] (16-h assay) it was 45%. In addition, the “Bcl-2 levels in small E75+TCR lymphocytes” value in experiment [10] (S5K-CTL) is given as “higher in the small lymphocytes”. For the same substance, in [10] (S5K-CTL stimulated 1 wk), the “MCF of E75+TCR expression in small lymphocytes” value was 180. Besides, the “increase in number of CD8+ cells of S5K-CTL” value in experiment [2] (50 μg/ml peptide + anti-Fas, 4 days) was 27%; in experiment [2] ([…] μg/ml peptide + anti-Fas, 4 days), 0.93%; in [2] (in the absence of CH11), “no increase in cell number”. Also, the “numbers of live cells recovered after stimulation and expansion in IL-2” value in experiment [2] (S5K-CTL stimulated with peptide-pulsed T2) is recorded as 2.9 ×10^6 cells. Further, the “number / survival … compared with E75” value in [2] is “survived longer than E75-stimulated cells”. The survival of responders entry in experiment [2] (donor 3, after third stimulation) was “better survival in responders than E75”. Besides, the “up-regulation of Bcl-2 and Bcl-XL” value in experiment [5] is “slightly stronger up-regulator of Bcl-2 than E75”. Also, the “up-regulation of Bcl-2” value in experiment [5] (S5K-CTL) is “slightly stronger up-regulator of Bcl-2 than E75”. For the same substance, the “exogenous pulsed E75 recognized by F42SK-CTL” value in experiment [11] is 5000 ng/mL. In experiment [12], the “IFN-γ secretion by peptide-induced CTL” value is “high levels of IFN-γ within 20 h”. Also, the “inhibition of lysis of SKOV3.A2 by T2-E75” value in [6] (S5K-CTL, 16-h assay) stood at 38%. In addition, the “inhibition of tumor lysis by T2-E75 compared with E75-CTL” value in experiment [6] (donor 2, E:T 30:1, cold:hot 10:1) was “inhibited less by T2-E75 than lysis by E75-CTL”. Besides, in [3], the “IFN-γ and IL-2 response of S5K-CTL compared with E75” value was “higher levels of IFN-γ, but lower levels of IL-2”. Further, the “IFN-γ at priming compared with E75” value in experiment [3] was “higher levels of IFN-γ”. The “increase of IFN-γ at priming over E75” value in experiment [3] was 36%. In addition, the “IFN-γ induction compared with E75” value in [3] (healthy donor responding weakly to E75) is “higher IFN-γ induction”.

Take KIFGSLAYL [F8Y]: the “recognition … compared with E75-induced CTL” value in [1] is “CTL induced by priming with E75 recognized E75 better”. Also, the “IFN-γ at priming compared with E75” value in experiment [3] is “lower levels of IFN-γ”.

On to KIFSGSLAKL [F8K], for which the “recognition … compared with E75-induced CTL” value in experiment [1] is given as “CTL induced by priming with E75 recognized E75 better”. Besides, in [3], the “IFN-γ at priming compared with E75” value was “lower levels of IFN-γ”.
